Laboratory results reported in ChEMBL document CHEMBL4359908, “Structure-activity relationship with pyrazoline-based aromatic sulfamates as carbonic anhydrase isoforms I, II, IX and XII inhibitors: Synthesis and biological evaluation” (Eur J Med Chem, 2019).

Assays:
[1] = biological target: T1, Carbonic anhydrase 12 (Homo sapiens, UniProt O43570); experiment: Inhibition of human carbonic anhydrase 12 assessed as inhibitory constant incubated for 15 mins by phenol red dye based stopped flow assay
[2] = biological target: Carbonic anhydrase 1 (Homo sapiens, UniProt P00915); experiment: Inhibition of human carbonic anhydrase 1 assessed as inhibitory constant incubated for 15 mins by phenol red dye based stopped flow assay
[3] = biological target: T2, Carbonic anhydrase 9 (Homo sapiens, UniProt Q16790); experiment: Inhibition of human carbonic anhydrase 9 assessed as inhibitory constant incubated for 15 mins by phenol red dye based stopped flow assay
[4] = biological target: Carbonic anhydrase 2 (Homo sapiens, UniProt P00918); experiment: Inhibition of human carbonic anhydrase 2 assessed as inhibitory constant incubated for 15 mins by phenol red dye based stopped flow assay
[5] = biological target: T1, Carbonic anhydrase 12; settings: at 0.001 µM
[6] = biological target: T2, Carbonic anhydrase 9; settings: at 0.1 µM
Description: Inhibition of human carbonic anhydrase 9 assessed as reduction in CO2 hydration at 10^-7 M incubated for 15 mins by phenol red dye based stopped flow assay relative to control (Rvb = 0 %)

[7] = biological target: T2, Carbonic anhydrase 9; settings: at 0.001 µM
Description: Inhibition of human carbonic anhydrase 9 assessed as reduction in CO2 hydration at 10^-9 M incubated for 15 mins by phenol red dye based stopped flow assay relative to control (Rvb = 0 %)

[8] = biological target: T2, Carbonic anhydrase 9; settings: at 0.01 µM
Description: Inhibition of human carbonic anhydrase 9 assessed as reduction in CO2 hydration at 10^-8 M incubated for 15 mins by phenol red dye based stopped flow assay relative to control (Rvb = 0 %)

[9] = biological target: T1, Carbonic anhydrase 12; settings: at 1 µM
Description: Inhibition of human carbonic anhydrase 12 assessed as reduction in CO2 hydration at 10^-6 M incubated for 15 mins by phenol red dye based stopped flow assay relative to control (Rvb = 0 %)

[10] = biological target: T2, Carbonic anhydrase 9; settings: at 1 µM
Description: Inhibition of human carbonic anhydrase 9 assessed as reduction in CO2 hydration at 10^-6 M incubated for 15 mins by phenol red dye based stopped flow assay relative to control (Rvb = 0 %)

[11] = biological target: T1, Carbonic anhydrase 12; settings: at 0.1 µM
Description: Inhibition of human carbonic anhydrase 12 assessed as reduction in CO2 hydration at 10^-7 M incubated for 15 mins by phenol red dye based stopped flow assay relative to control (Rvb = 0 %)

[12] = biological target: T1, Carbonic anhydrase 12; settings: at 0.01 µM

T1 sequence (O43570 whole entry): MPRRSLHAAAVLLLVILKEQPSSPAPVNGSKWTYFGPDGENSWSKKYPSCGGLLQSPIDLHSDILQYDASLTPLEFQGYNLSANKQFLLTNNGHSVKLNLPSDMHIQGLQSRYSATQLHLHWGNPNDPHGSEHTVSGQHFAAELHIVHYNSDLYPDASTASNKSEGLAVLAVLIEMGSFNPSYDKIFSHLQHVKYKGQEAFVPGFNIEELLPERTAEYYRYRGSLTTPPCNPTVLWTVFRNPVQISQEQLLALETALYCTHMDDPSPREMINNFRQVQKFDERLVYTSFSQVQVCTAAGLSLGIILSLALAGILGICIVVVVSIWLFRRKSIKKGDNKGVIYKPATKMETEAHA
Chain of Carbonic anhydrase 1 (P00915 whole entry): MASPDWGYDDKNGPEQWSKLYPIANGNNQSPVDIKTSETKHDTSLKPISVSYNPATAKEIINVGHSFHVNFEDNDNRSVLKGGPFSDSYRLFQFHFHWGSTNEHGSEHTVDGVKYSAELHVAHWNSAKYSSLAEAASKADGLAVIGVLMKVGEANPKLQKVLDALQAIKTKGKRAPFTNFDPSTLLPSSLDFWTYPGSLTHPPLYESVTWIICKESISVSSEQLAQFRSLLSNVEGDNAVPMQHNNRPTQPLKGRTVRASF

| SMILES | Ki [1] | Ki [2] | Ki [3] | Ki [4] | inhibition [5] | inhibition [6] | inhibition [7] | inhibition [8] | inhibition [9] | inhibition [10] | inhibition [11] | inhibition [12] |
| --- | --- | --- | --- | --- | --- | --- | --- | --- | --- | --- | --- | --- |
| CC(=O)N1N=C(c2ccc(C)cc2)CC1c1cccc(OS(N)(=O)=O)c1 (stereo not given) | 49.8 nM | 1540 nM | 8.9 nM | 25.4 nM | – | – | – | – | – | – | – | – |
| CC(=O)N1N=C(c2ccc(C)cc2)CC1c1ccc(OS(N)(=O)=O)cc1 (stereo not given) | 7.7 nM | 2340 nM | 22.4 nM | 9.9 nM | – | – | – | – | – | – | – | – |
| CC(=O)N1N=C(c2cccc(OS(N)(=O)=O)c2)CC1c1ccc(Cl)cc1Cl (stereo not given) | 33.8 nM | 1410 nM | 13.8 nM | 195 nM | – | – | – | – | – | – | – | – |
| CC(=O)N1N=C(c2cccc(OS(N)(=O)=O)c2)CC1c1ccccc1 (stereo not given) | 55.1 nM | 188 nM | 29.9 nM | 39.4 nM | – | – | – | – | – | – | – | – |
| CC(=O)N1N=C(c2ccc(F)cc2)CC1c1cccc(OS(N)(=O)=O)c1 (stereo not given) | – | 5230 nM | 15.8 nM | 6.5 nM | – | – | – | – | – | – | – | – |
| CC(=O)N1N=C(c2ccc(OS(N)(=O)=O)cc2)CC1c1ccc(Cl)cc1 (stereo not given) | 27.3 nM | 1140 nM | 6.9 nM | 6 nM | – | – | – | – | – | – | – | – |
| CC(=O)N1N=C(c2ccc(OS(N)(=O)=O)cc2)CC1c1ccc(C)cc1 (stereo not given) | 22.3 nM | 817 nM | 7.1 nM | 6.5 nM | – | – | – | – | – | – | – | – |
| CC(=O)N1N=C(c2cccc(OS(N)(=O)=O)c2)CC1c1cc(Cl)ccc1Cl (stereo not given) | 34.2 nM | 2040 nM | 58.9 nM | 92.6 nM | – | – | – | – | – | – | – | – |
| CC(=O)N1N=C(c2cccc(OS(N)(=O)=O)c2)CC1c1ccc([N+](=O)[O-])cc1 (stereo not given) | 20.8 nM | 1460 nM | 10.1 nM | 134 nM | – | – | – | – | – | – | – | – |
| CC(=O)N1N=C(c2ccc(OS(N)(=O)=O)cc2)CC1c1ccccc1Cl (stereo not given) | – | 8250 nM | 25.9 nM | 9 nM | – | – | – | – | – | – | – | – |
| CC(=O)N1N=C(c2cccc(OS(N)(=O)=O)c2)CC1c1c(Cl)cccc1Cl (stereo not given) | 61.3 nM | 1780 nM | 63.6 nM | 223 nM | – | – | – | – | – | – | – | – |
| CC(=O)N1N=C(c2cccc(OS(N)(=O)=O)c2)CC1c1cccc2ccccc12 (stereo not given) | 463 nM | 2240 nM | 51.1 nM | 216 nM | – | – | – | – | – | – | – | – |
| CC(=O)N1N=C(c2ccc(OS(N)(=O)=O)cc2)CC1c1cc(Cl)ccc1Cl (stereo not given) | – | 4750 nM | 25.5 nM | 12.4 nM | – | – | – | – | – | – | – | – |
| CC(=O)N1N=C(c2ccc(OS(N)(=O)=O)cc2)CC1c1ccc(Cl)cc1Cl (stereo not given) | 26.2 nM | 3750 nM | 11.2 nM | 9.3 nM | – | – | – | – | – | – | – | – |
| CC(=O)N1N=C(c2ccccc2)CC1c1ccc(OS(N)(=O)=O)cc1 (stereo not given) | 10.6 nM | 645 nM | 45.1 nM | 44.8 nM | 15% | 69% | 16% | 42% | 89% | 81% | 77% | 49% |
| CC(=O)N1N=C(c2cccc(OS(N)(=O)=O)c2)CC1c1ccccc1Cl (stereo not given) | 74.4 nM | 940 nM | 43.6 nM | 90.1 nM | – | – | – | – | – | – | – | – |
| CC(=O)N1N=C(c2cccc(OS(N)(=O)=O)c2)CC1c1cccc(Cl)c1 (stereo not given) | 44.6 nM | 805 nM | 7.3 nM | 56.9 nM | – | – | – | – | – | – | – | – |
| CC(=O)N1N=C(c2ccc(Cl)cc2Cl)CC1c1cccc(OS(N)(=O)=O)c1 (stereo not given) | 30.8 nM | 6940 nM | 48.7 nM | 12 nM | – | – | – | – | – | – | – | – |
| COc1ccc(C2=NN(C(C)=O)C(c3ccc(OS(N)(=O)=O)cc3)C2)cc1 (stereo not given) | 9.5 nM | 2980 nM | 22.8 nM | 0.42 nM | – | – | – | – | – | – | – | – |
| CC(=O)N1N=C(c2ccc([N+](=O)[O-])cc2)CC1c1ccc(OS(N)(=O)=O)cc1 (stereo not given) | 0.88 nM | 3820 nM | 15 nM | 9.5 nM | – | – | – | – | – | – | – | – |
